# “And” between values parts separate entries of the source, which are not always exact repeats. Equal values may be shown once.
# Experiments:
# Format in all cases: in vivo, male Sprague-Dawley (SD) rats
# [1] = Rat PK: plasma xanomeline after oral (PO) dosing of xanomeline or xanomeline prodrugs at 10 mg/kg (Example A-7); conditions: analyte xanomeline in plasma, 10 mg/kg of xanomeline
# Method: (§1) Samples were sent for method optimization and measurement of parent compound (xanomeline) via unique calibration lines and following acceptance QC's. Dose formulation concentrations were also measured, and PK parameters were determined (Cmax (ng/mL), Tmax (hr), Cl (ml/min/kg), Vdss (L/kg), t½ (hr), AUC0-t (ng/mL*hr), AUC0-inf (ng/mL*hr), MRT (hr), Bioavailability (% F) where warranted) using WinNon Lin software. Data (including bioanalytical results and assay performance) were reported in a tabulated format and QC'd.
# Compound was dissolved in DMSO:HPCD (20% w/v in water) [10:90] 2 mg API/mL to provide doses of 10 mg API/kg when administered PO in 5 mL/kg dosing volumes.
# (§2) The pharmacokinetic properties of the synthesized xanomeline prodrugs after oral administration in a rat model were assessed. The concentration of xanomeline was measured in each rat at various sampling timepoints after oral administration of xanomeline or the synthesized xanomeline prodrugs to rats.
# (§3) Dose formulations were made at equivalent concentrations of active compound (xanomeline) adjusted for molecular weight of the compounds. The synthesized xanomeline prodrugs were dosed at 10 mg/kg oral (PO) nominal dose. Nominal doses were used in PK parameter determinations. The parent compound (xanomeline) was dosed at 10 mg/kg oral (PO).
# [2] = Rat PK: plasma xanomeline after single subcutaneous (SC) dosing of xanomeline or xanomeline prodrugs at 1 mg/kg (Example A-1); conditions: xanomeline analyte in plasma; for AUC(0-inf): read-out: AUCINF_obs; for half-life: read-out: T½ (converted)
# Method: A pharmacokinetic (PK) study was performed in three male Sprague-Dawley (SD) rats following subcutaneous (SC) administration of xanomeline or test compounds (prodrugs of xanomeline) at 1 mg/kg. Parent compound (xanomeline) was measured in plasma.
# as §1, with “t½(hr),” for “t½ (hr),”, “format” for “format and QC'd.”
# • Step 1: A stock solution of the compound(s) were prepared to 1 mg/ml in DMSO • Step 2: A 10,000 ng/mL matched matrix standard was prepared using the stock solution(s) • Step 3: Calibration standards in matched matrix were prepared between 10,000 ng/ml and 0.5 ng/mL using serial dilution • Step 4: QC samples were prepared in matched matrix at 4000, 800, 400, 40 and 10 ng/mL Calibration Standards:
# • Step 1: A stock of the IS was diluted to 1 mg/ml in DMSO • Step 2: An ISY is made by diluting the stock to 10 μg/ml in DMSO • Step 3: An ISZ is made by diluting the ISY to 25 ng/ml in 0.1% formic acid in acetonitrile
# (§4) • Step 1: Add 10 μL of the standards, QCs and samples to a 96-well plate (extraction plate) • Step 2: To each standard, QC and test sample, add 100 μL of ISZ • Step 3: Sonicate for 2 min then mix the plate for approximately 2 min at 1200 rpm on a plate shaker • Step 4: Centrifuge the plate at 3000 rpm for 5 mins • Step 5: Add 50 μL 0.1% Formic acid in UP H2O to wells of a new 96-well plate • Step 6: Transfer 50 μL extracted sample to relevant position in second 96-well plate • Step 7: Mix at 1200 rpm for 2 minutes • Step 8: Heat seal and analyse on the LC-MS/MS system • Instrument: Xevo TQ-D with CTC Autosampler
# • Step 1: A stock solution of the compound(s) were prepared to 1 mg/ml in DMSO • Step 2: A 10,000 ng/mL matched matrix standard was prepared using the stock solution(s) • Step 3: A 2,000 ng/ml matched matrix stock dilution was made from the 10,000 ng/ml stock dilution • Step 4: Standards were prepared at a concentration of 200 ng/ml to 0.01 ng/ml in matched matrix via serial dilution from the second Stock dilution • Step 5: QC samples were prepared in matched matrix at 150, 40, 20, 4 and 0.4 ng/mL Calibration Standards:
# as §4, with “min” for “mins”, “formic” for “Formic”, “min” for “minutes”, “TQ-Absolute UHPLC-MS/MS” for “TQ-D with CTC Autosampler”
# (§5) Formulation for SC administration: For SC dosing, xanomeline and xanomeline prodrugs were formulated as solution in 10% DMSO/90% HPCD (20% in water) to a concentration of 0.5 mg free metabolite material/mL. This provided a dose of 1 mg free metabolite/kg when administered SC in 2 mL/kg dosing volumes.
# as §2, with “subcutaneous” for “oral”
# Dose formulations were made at equivalent concentrations of active compound (xanomeline) adjusted for molecular weight of the compounds. The synthesized xanomeline prodrugs were dosed at 1 mg/kg subcutaneous (SC) nominal dose. […]
# [3] = Rat PK: plasma xanomeline after subcutaneous (SC) dosing of xanomeline, prodrugs or pamoate salts at 5 mg/kg or 3.5 mg/kg (Example A-2); conditions: parent xanomeline dosed SC; for Tmax / Cmax / AUC(0-inf) / AUC(0-t) / half-life: male, Sprague-Dawley; for AUC(0-inf): read-out: Xanomeline (SC) AUC0-inf; for AUC(0-t): read-out: Xanomeline (SC) AUC0-last; for half-life: read-out: Xanomeline (SC) T1/2 (converted)
# Method: as §1, with “format.” for “format and QC'd.”
# as §5, with “of 2.5 mg free metabolite material/mL or 1.75” for “of 0.5”, “of 5” for “of 1”, “metabolite/kg or 3.5 mg free metabolite/kg, respectively,” for “metabolite/kg”
# as §2, with “subcutaneous” for “oral”
# as §3, with “5” for “10”, “subcutaneous (SC)” for “oral (PO)”, “dose except for xanomeline oxyisobutyl pivalate chloride prodrug and xanomeline oxypropyl pivalate chloride prodrug, which were dosed at 3.5 mg/kg subcutaneous.” for “dose.”, “subcutaneous (SC).” for “oral (PO).”
# [4] = male, Sprague-Dawley, plasma, sc, Mean of animals (Table 3)
# [5] = male, Sprague-Dawley, plasma, sc, individual animal (Table 3)
molecule,measurement,setting,value
xanomeline methyl hexylcarbonate chloride prodrug,Xanomeline Tlast,[1]; Mean of 3 animals,2.67 h
same,Xanomeline Tlast,"[1]; individual animal, 10 mg/kg",1.00 h and 7.00 h
"CCCCCCOc1nsnc1C1=CCCN(C)C1 [Xanomeline, 3-hexyloxy-4-(1-methyl-3,6-dihydro-2H-pyridin-5-yl)-1,2,5-thiadiazole]",Tmax,"[2]; male, Sprague-Dawley, in vivo, individual animal (Table 3)",0.25 h
same,AUC(0-t),[2]; [4],38.3 ng·h/mL
same,AUC(0-inf),[2]; [4],42 ng·h/mL
same,Cmax,"[2]; male, Sprague-Dawley, plasma, sc, Mean of animals (Table 3), read-out: Cmax",14.4 ng/mL
same,half-life,[2]; [4],1.85 h
same,AUC(0-t),[2]; [5],40.1 ng·h/mL
same,AUC(0-inf),[2]; [5],46 ng·h/mL
same,Cmax,"[2]; male, Sprague-Dawley, plasma, sc, individual animal (Table 3), read-out: Cmax",15.9 ng/mL
same,half-life,[2]; [5],2.3 h
same,Tmax,"[2]; male, Sprague-Dawley, Mean of animals (Table 3)",0.25 h
same,Tlast,[2]; Mean of animals (Table 3),7.00 h
same,AUCINF_obs,[2]; individual animal (Table 3),42.9 ng·h/mL and 37.0 ng·h/mL
same,AUClast,[2]; individual animal (Table 3),40.0 ng·h/mL and 34.9 ng·h/mL
same,Cmax,[2]; individual animal (Table 3),15.1 ng/mL and 12.3 ng/mL
same,Tlast,[2]; individual animal (Table 3),7.00 h
same,T½,[2]; individual animal (Table 3),1.66 h and 1.58 h
same,Tmax,"[3]; in vivo, individual animals",1 h
same,Cmax,"[3]; plasma, sc, Mean",43 ng/mL
same,Tmax,"[3]; plasma, sc, Mean",0.833 h
same,AUC(0-inf),"[3]; plasma, sc, Mean",154 ng·h/mL
same,AUC(0-t),"[3]; plasma, sc, Mean",171 ng·h/mL
same,half-life,"[3]; plasma, sc, Mean",1.37 h
same,Cmax,"[3]; plasma, sc, individual animals",54.6 ng/mL
same,Tmax,"[3]; plasma, sc, individual animals",0.5 h
same,AUC(0-inf),"[3]; plasma, sc, individual animals",185 ng·h/mL
same,AUC(0-t),"[3]; plasma, sc, individual animals",180 ng·h/mL
same,half-life,"[3]; plasma, sc, individual animals",1.5 h
same,Xanomeline (SC) Tlast,[3]; Mean,37.3 h
same,Xanomeline (SC) AUC0-inf,[3]; individual animals,123 ng·h/mL
same,Xanomeline (SC) AUC0-last,[3]; individual animals,213 ng·h/mL and 121 ng·h/mL
same,Xanomeline (SC) Cmax,[3]; individual animals,30.0 ng/mL and 44.4 ng/mL
same,Xanomeline (SC) T1/2,[3]; individual animals,1.24 h
same,Xanomeline (SC) Tlast,[3]; individual animals,8.00 h (2×) and 96.0 h

# — patent US20240368149A1, “ANALOGS OF XANOMELINE” (Terran Biosciences Inc., priority 2023, published 2024)
